In patent publication US20200397807A1, “NICOTINYL RIBOSIDE COMPOUNDS AND THEIR USES” (MitoPower, LLC, priority 2019, published 2020):
Counter-ions that a name gives are not always drawn. Like-named read-outs stand apart in the source and are kept apart here.

How the values were obtained:
HepG2 cells [1] = assay: Lactate released into the media; assay type: cell-based
HepG2 cells [2] = assay: Glucose concentration in the media; assay type: cell-based
HepG2 cells [3] = test system: HepG2 cells
HepG2 cells [4] = test system: HepG2 cells; remark: listed apart in the source
[5] = led to fatally high body temperature; cited from earlier work
Jurkat cells [6] = assay: Total cellular NAD^+ level after MNNG-induced depletion (NAD/NADH Glo assay); assay type: cell-based; details: for % NAD^+ Repletion: MNNG 100 μM, compound 1 mM; for increase of NAD^+ level: 100 μM MNNG 30 min, wash, NR 100 μM or/and olaparib 5 nM 3.5 hr
HepG2 cells [7] = assay: as above; assay type: cell-based; details: MNNG 100 μM, compound 1 mM
HepG2 cells [8] = assay: MNNG-induced cytotoxicity / cytoprotection (CellTiter-Blue Cell Viability Assay); assay type: cell-based; details: MNNG 600 μM, compound 1 mM
Jurkat cells [9] = details: MNNG 100 μM, compound 1 mM
Jurkat cells [10] = assay: NAD^+ assay (total cellular NAD^+ by HPLC/LCMS), with or without MNNG; details: Jurkat not treated with MNNG; NRH vs. NR 100 μM; 4 hr
[11] = 4 g of oral NTZ; healthy adults; cited from earlier work

## O=[N+]([O-])c1ccc(O)c([N+](=O)[O-])c1 [DNP, 2,4-Dinitrophenol]
HepG2 cells [1]
  concentration of lactate released into the media: markedly increased
HepG2 cells [2]
  concentration of glucose in the media: significantly reduced
HepG2 cells [3]
  % viability of HepG2 cells: significantly reduced
HepG2 cells [4]
  activity of lactate dehydrogenase (LDH) released into the media: markedly increased
[5]
  dose causing excessive systemic uncoupling, fold greater than minimum effective dose for reducing body weight: 3-10 fold

## NC(=O)c1ccc[n+]([C@@H]2O[C@H](COC(=O)CCC(=O)O)[C@@H](O)[C@H]2O)c1 [MP-42, 3-Carboxamide-1-((2R,3R,4S,5R)-5-(((3-carboxypropanoyl)oxy)methyl)-3,4-dihydroxytetrahydrofuran-2-yl)pyridin-1-ium Trifluoroacetate]
Jurkat cells [6]
  % NAD^+ Repletion: 8.2%
HepG2 cells [7]
  % NAD^+ Repletion: 23.7%
HepG2 cells [8]
  % Cytoprotection: 9.9%
Jurkat cells [9]
  % Cytoprotection: 4.5%

## COC(=O)CCC(=O)OC[C@H]1O[C@@H]([n+]2cccc(C(N)=O)c2)[C@H](O)[C@@H]1O [MP-43, 3-Carboxamide-1-((2R,3R,4S,5R)-3,4-dihydroxy-5-(((4-methoxy-4-oxobutanoyl)oxy)methyl)tetrahydrofuran-2-yl)pyridin-1-ium Trifluoroacetate]
Jurkat cells [6]
  % NAD^+ Repletion: 12.9%
HepG2 cells [7]
  % NAD^+ Repletion: 31.1%
HepG2 cells [8]
  % Cytoprotection: 5.7%
Jurkat cells [9]
  % Cytoprotection: 6.3%

## NC(=O)c1ccc[n+]([C@@H]2O[C@H](CO)[C@@H](O)[C@H]2O)c1 [NR, nicotinamide riboside, reference compound]
Jurkat cells [6]
  increase of NAD^+ level: 43%

## NC(=O)C1=CN([C@@H]2O[C@H](CO)[C@@H](O)[C@H]2O)C=CC1 [NRH]
HepG2 cells [1]; 50 μM DNP, 100 μM NRH or both, 4 hr, versus untreated, FIG. 28
  concentration of lactate released into the media: did not significantly affect
HepG2 cells [2]; 50 μM DNP, 100 μM NRH or both, 4 hr, versus untreated, FIG. 29
  concentration of glucose in the media: did not significantly affect
Jurkat cells [10]
  NAD^+ level, NRH alone versus NR alone: markedly higher NAD^+ level than NR alone

## CC(=O)Oc1ccccc1C(=O)Nc1ncc([N+](=O)[O-])s1 [NTZ, nitazoxanide]
[11]
  adverse effect: does not cause any significant adverse effect

## O=C(c1cc(Cc2n[nH]c(=O)c3ccccc23)ccc1F)N1CCN(C(=O)C2CC2)CC1 [olaparib, reference compound]
Jurkat cells [6]
  increase of NAD^+ level: 8%
